How the values were obtained:
Format in all cases: cell-based
[1] = system: Human Nasal Epithelial Cells (HNEpC); assay: Proliferation assay (MTT); details: Epithelial cell, 24 hours
Method: (§1) In vitro studies were performed to assess the proliferation and re-epithelialization activity of compositions containing hyaluronic acid and xylitol as individual components and in combination. Three independent trials were carried out with 4 replicates per experimental trial.
(§2) Solutions in basal culture medium of hyaluronic acid (HA, White powder,CAS number 9067-32-7, MW: 1000-1400 kDa, Givaudan France SAS xylitol (Xyl,. White crystalline powder, CAS number 87-99-0 Roquette) or combinations of hyaluronic acid and xylitol at different concentrations were tested.
(§3) Human Nasal Epithelial Cells (HNEpC) from a primary cell line isolated from normal human nasal mucosa were purchased form PromoCell (ref: C-12620). The cell line was maintained in supplemented culture medium according to the supplier guidelines and was routinely grown as a monolayer in tissue culture grade flasks. When cells exceeded 70% confluence (but less than 90%), they were sub-cultured on new culture flasks. All the cell cultures were maintained in standard cell culture conditions (37 °C, 5% CO2 and 95% humidity).
MTT, a yellow tetrazole, is reduced to purple formazan by cell metabolic activity. This reduction is proportional to the amount of living cells in the well and, therefore, to cell proliferation over time. Cells cultured in 96-well plates were treated with the test compositions for 24 hours (37 °C, 5% CO2). After 24 hours of incubation, cells were washed with PBS and stained with MTT solution and incubated at 37 °C for 2 hours. At the end of this incubation period, the staining medium was removed and 100 µL of DMSO/well were added to solubilize the colored precipitate. The absorbance was read at 540 nm in the spectrophotometer plate reader. The cell proliferation percentage was calculated relative to the negative control, a condition in which cells were not treated with any product. Cells with treatments and negative control were cultured with basal medium. As positive control, cells were cultured in supplemented medium. The % of cell proliferation was calculated by the following formula: • % proliferation = AbT/AbC x 100 • AbT = absorbance at 540 nm after 24 hours of treatment • AbC = absorbance at 540 nm of the negative control (24 hours of cells growing in basal medium)

[2] = system: Human Nasal Epithelial Cells (HNEpC); assay: Re-epithelialization (scratch) assay; details: 0.5% compound separately (FIG. 2)
Method: as §1, §2
as §3, with “All the cell cultures were maintained in standard cell culture conditions (37 °C, 5% CO2 and 95% humidity).” left out
Cells were seeded in both sides of inserts attached on culture wells and were incubated in supplemented medium at 37 °C and 5% CO2. […] The area of the scratch was calculated using ImageJ software. The percentage of scratch closure (re-epithelialization percentage) was calculated relative to the negative control, a condition in which cells were not treated with any product. […]

in vitro = details: human, nasal epithelial cells
Excerpt: Regarding hyaluronic acid, insolubility at concentrations above 0.5% w/v prevented the testing of higher concentrations. As for xylitol, a high in vitro cytotoxicity at concentrations above 0.5% w/v prevented the testing of higher concentrations.

SMILES: OC[C@@H](O)[C@H](O)[C@@H](O)CO [Xyl, xylitol]
- activation at 0.125 % ([1]; 0.125% compound alone, read-out: increase of cell proliferation in relation to negative control): 0%
- activation at 0.5 % ([1]; 0.5% compound alone, read-out: increase of cell proliferation in relation to negative control): 0%
- activity at 0.125 % strength ([1]; basal medium, relative to negative control (100%), compound concentration 0.125 %w/v): 99.9%
- activity at 0.5 % strength ([1]; basal medium, relative to negative control (100%), compound concentration 0.5 %w/v): 98.2%
- scratch closure after 72 hours of exposure [2]: did not
- MCC (in vitro): > 5000 µg/mL

Reference: patent EP4364731A1, “COMPOSITION FOR USE IN THE TREATMENT OF DISRUPTED NASAL MUCOSA AND EPITHELIAL BARRIER” (Laboratorios Cinfa, S.A., priority 2022, dated 2024)
